Reference: the PolyMetriX glass transition set
± gives the standard deviation of the reports.

Row | SMILES | glass transition temperature
1 | *CCOCCOCCOCCOC(=O)Nc1ccc(Cc2ccc(NC(=O)O*)cc2)cc1 (repeat unit) | 37.00 °C
2 | *C1C(*)C2CC1C(C(=O)OCCc1ccccc1)C2C(=O)OCCc1ccccc1 (repeat unit) | 254.00 °C
3 | *C1CCC(CC2CCC(N3C(=O)C4C5C=CC(C6C(=O)N(*)C(=O)C56)C4C3=O)CC2)CC1 (repeat unit) | 239.00 °C
4 | *c1ccc(-c2ccc(-n3c(-c4ccc(Oc5ccc(C(=O)c6ccc(Oc7ccc(-c8nc9ccccc9n8*)cc7)cc6)cc5)cc4)nc4ccccc43)cc2)cc1 (repeat unit) | 268.00 °C
5 | *Oc1ccc(C(=O)OCCOCCOCCOCCOC(=O)c2ccc(OC(=O)c3ccc(C(*)=O)cc3)cc2)cc1 (repeat unit) | 30.00 °C
6 | *c1ccc(Oc2cccc(Oc3ccc(N4C(=O)c5cccc(Oc6cccc(Oc7cccc8c7C(=O)N(*)C8=O)c6)c5C4=O)cc3)c2)cc1 (repeat unit) | 193.00 °C
7 | *CC(*)C(=O)OCCCn1c2ccccc2c2ccccc21 (repeat unit) | 83.00 °C
8 | *CC(*)CO (repeat unit) | 36.00 °C
9 | *CCCCCCCCOC(=O)Nc1ccc(NC(=O)OCCCCCCCCOc2ccc(-c3ccc(O*)cc3)cc2)c(C)c1 (repeat unit) | 81.00 °C
10 | *c1ccc(Sc2ccc(Sc3ccc(Sc4ccc(N5C(=O)c6ccc(Oc7ccc8c(c7)C(=O)N(*)C8=O)cc6C5=O)cc4)cc3)cc2)cc1 (repeat unit) | 202.7 °C
11 | *CC(*)c1ccc(C(O)CCN(C)C)cc1 (repeat unit) | 43.00 °C
12 | *C(=O)c1cc(C(=O)c2ccc3c(c2)C(=O)N(c2cccc(N4C(=O)c5ccc(*)cc5C4=O)c2)C3=O)cc(C(C)(C)C)c1 (repeat unit) | 264.50 °C
13 | *c1ccc(-c2cc(-c3ccc(-c4ccccc4)cc3)cc(-c3ccc(N4C(=O)c5ccc(NC(=O)Nc6ccc(-c7cc(-c8ccc(-c9ccccc9)cc8)cc(-c8ccc(NC(=O)Nc9ccc%10c(c9)C(=O)N(*)C%10=O)cc8)n7)cc6)cc5C4=O)cc3)n2)cc1 (repeat unit) | 272.00 °C
14 | *Oc1ccc(C(c2ccccc2)(c2ccccc2)c2ccc(Oc3ccc(C(=O)Nc4ccc(NC(=O)c5ccc(*)cc5)cc4)cc3)cc2)cc1 (repeat unit) | 254.00 °C
15 | *c1ccc(Oc2ccc(C(=O)c3cccc(C(=O)c4ccc(Oc5ccc(N6C(=O)c7ccc(-c8ccc9c(c8)C(=O)N(*)C9=O)cc7C6=O)cc5)cc4)c3)cc2)cc1 (repeat unit) | 222.00 °C
16 | *Nc1ccc(NC(=O)c2ccc(NC(=O)CCCCCCCCC(=O)Nc3ccc(C(*)=O)cc3)cc2)cc1C(=O)OCCCCCCCCCCCCCCCCCC (repeat unit) | 280.00 °C
17 | *C(=O)Nc1ccc(Oc2ccc(C(c3ccc(Oc4ccc(NC(=O)c5ccc6c(c5)C(=O)N(c5ccc(Oc7ccc8ccc(Oc9ccc(N%10C(=O)c%11ccc(*)cc%11C%10=O)cc9)cc8c7)cc5)C6=O)cc4)cc3)(C(F)(F)F)C(F)(F)F)cc2)cc1 (repeat unit) | 250.00 °C
18 | *c1ccc(-c2ccc(-c3c(-c4ccccc4)nc4ccc(Oc5ccc6nc(-c7ccccc7)c(*)c(-c7ccccc7)c6c5)cc4c3-c3ccccc3)cc2)cc1 (repeat unit) | 330.00 °C
19 | *CC(C)(N=C=O)C1C(=O)OC(=O)C1* (repeat unit) | 100.00 °C
20 | *C(CC)COC(=O)NCCCCCCNC(=O)OCC(CC)n1c(=O)c2cc3c(=O)n(*)c(=O)c3cc2c1=O (repeat unit) | 61.00 °C
21 | *CCOC(=O)C1=CCCCC(N2CCCC2)=C1C(=O)O* (repeat unit) | 352.50 °C

Row | SMILES | glass transition temperature
22 | *CC(*)(C)C(=O)OC12CC3CC(CC(C3)C1)C2 (repeat unit) | 183.00 °C
23 | *OC(C)CCOC(=O)c1ccc(-c2ccc(C(*)=O)cc2)cc1 (repeat unit) | 92.50 °C
24 | *CC(C)(C)COC(=O)Nc1ccc(Cc2ccc(NC(=O)O*)cc2)cc1 (repeat unit) | 94.00 °C
25 | *C(=O)OCCOCCOCCOCCOC(=O)c1ccc(N2C(=O)c3ccc(*)cc3C2=O)cc1 (repeat unit) | 52.00 °C
26 | *Oc1ccc(NC(=O)Nc2cc(NC(=O)Nc3ccc(*)cc3)ccc2C)cc1 (repeat unit) | 269.00 °C
27 | *CC(*)(C)C(=O)OC1CCCC(C)C1 (repeat unit) | 89.00 °C
28 | *CCCCCCN1C(=O)C(=O)N(*)C1=O (repeat unit) | 55.00 °C
29 | *c1ccc2c(c1)C(CC(CC)CCCC)(CC(CC)CCCC)c1cc(*)ccc1-2 (repeat unit) | 44.00 ± 21 °C
30 | *Oc1ccc(C(C)(C)c2ccc(Oc3ccc(C(=O)c4ccc(Oc5ccc(C(=O)c6ccc(*)cc6)cc5)cc4)cc3)cc2)cc1 (repeat unit) | 162.00 °C
31 | *CC1(C)CC(N2C(=O)c3ccc(Oc4ccc5c(c4)C(=O)N(*)C5=O)cc3C2=O)CC(C)(C)C1 (repeat unit) | 266.00 °C
32 | *CCOCCOCCOCCOCCOCCOc1ccc(C(=O)Nc2cc(NC(=O)c3ccc(O*)cc3)cc(-c3nc4ccccc4[nH]3)c2)cc1 (repeat unit) | 125.00 °C
33 | *C(=O)Oc1ccc(C23CC4CC(CC(C4)C2)C3)c(OC(=O)c2ccc3c(c2)C(=O)N(c2ccc(-c4ccc(N5C(=O)c6ccc(*)cc6C5=O)cc4C)c(C)c2)C3=O)c1 (repeat unit) | 225.00 °C
34 | *c1ccc2c(c1)C(=O)N(c1ccc(Sc3ccc(N4C(=O)c5ccc(C(*)(C(F)(F)F)C(F)(F)F)cc5C4=O)cc3)cc1)C2=O (repeat unit) | 301.00 °C
35 | *CCOCCOC(=O)C1CCC(C(=O)O*)CC1 (repeat unit) | -12.00 °C
36 | *Oc1ccc(C(C)(C)c2cc(Cl)c(OC(*)=O)c(Cl)c2)cc1 (repeat unit) | 186.00 °C
37 | *Oc1ccc(-c2ccc(Oc3ccc(C(=O)c4c(C(=O)c5ccc(*)cc5)c(-c5ccccc5)c(-c5ccc6ccccc6c5)c(-c5ccc6ccccc6c5)c4-c4ccccc4)cc3)cc2)cc1 (repeat unit) | 290.00 °C
38 | */C=C/C(COCc1ccccc1)C(*)COCc1ccccc1 (repeat unit) | -4.00 °C
39 | *c1ccc2c(c1)C(=O)N(c1ccc(Oc3cccc(Oc4ccc(N5C(=O)c6ccc(C(*)(C(F)(F)F)C(F)(F)F)cc6C5=O)cc4)c3C#N)cc1)C2=O (repeat unit) | 280.00 °C
40 | *CCCCCCCCCCCCCCc1ccc(-c2c(-c3ccccc3)cc(-c3cccc(-c4cc(-c5ccccc5)c(-c5ccc(*)cc5)c(-c5ccccc5)c4-c4ccccc4)c3)c(-c3ccccc3)c2-c2ccccc2)cc1 (repeat unit) | 160.00 °C
41 | *CCc1ccc(*)s1 (repeat unit) | 26.00 °C
42 | *Oc1ccc(C(C)(C)c2ccc(Oc3c(F)c(F)c(COC(c4cccc(C(OCc5c(F)c(F)c(*)c(F)c5F)(C(F)(F)F)C(F)(F)F)c4)(C(F)(F)F)C(F)(F)F)c(F)c3F)cc2)cc1 (repeat unit) | 98.00 °C

Row | SMILES | glass transition temperature
43 | *CCCCCCOC(=O)OCCCCCCCCCCCCOC(=O)OCCCCCCOc1ccc(Oc2ccc(O*)cc2)cc1 (repeat unit) | -22.00 °C
44 | *c1ccc(C(=O)c2ccc(C(=O)c3ccc(S(*)(=O)=O)cc3)cc2)cc1 (repeat unit) | 213.50 °C
45 | *C(=O)Nc1ccc(Cc2ccc(NC(=O)c3ccc4c(c3)C(=O)N(c3ccc(Oc5ccc(N6C(=O)c7ccc(*)cc7C6=O)cc5)cc3)C4=O)cc2)cc1 (repeat unit) | 270.00 °C
46 | */C(=C/c1cc(OC)c(/C=C(\c2ccc(F)cc2)c2ccc3cc(*)ccc3c2)cc1OC)c1ccc(F)cc1 (repeat unit) | 208.00 °C
47 | *CC(OCC(C)C)C1(C)C(=O)OC(=O)C1(*)C (repeat unit) | 219.00 °C
48 | *c1ccc(-c2ccc(Oc3ccc(C4(C)CC(C)(C)c5ccc(Oc6ccc(-c7ccc(N8C(=O)c9ccc(Oc%10ccc%11c(c%10)C(=O)N(*)C%11=O)cc9C8=O)cc7)cc6C(F)(F)F)cc54)cc3)c(C(F)(F)F)c2)cc1 (repeat unit) | 249.00 °C
49 | *CCCC(Cl)C(*)Cl (repeat unit) | 42.00 °C
50 | *OC(F)(F)C(F)(F)C(*)(F)F (repeat unit) | -109.00 °C
51 | *Oc1ccc(OC(=O)c2ccc(C(*)=O)cc2)cc1CCC(C)CC (repeat unit) | 237.00 °C
52 | *CC/C=C(/*)C(C)(C)C (repeat unit) | 20.00 °C
53 | *COC(=O)OC1C(*)OC2OC(C)(C)OC21 (repeat unit) | 128.00 °C
54 | *C1CCC(N2C(=O)c3ccc(S(=O)(=O)c4ccc5c(c4)C(=O)N(*)C5=O)cc3C2=O)CC1 (repeat unit) | 363.00 °C
55 | *c1ccc(C2(c3ccc(N4C(=O)c5ccc(-c6ccc7c(c6)C(=O)N(*)C7=O)cc5C4=O)cc3)c3ccccc3-c3ccccc32)cc1 (repeat unit) | 388.00 °C
56 | *CCCCCCC(=O)Oc1ccc(OC(=O)c2ccc3c(c2)C(=O)N(*)C3=O)cc1 (repeat unit) | 74.31 °C
57 | *c1cccc(OCCCCCCCCCCCOC(=O)c2cccc(C(=O)OCCCCCCCCCCCOc3cccc(-c4nnc(*)s4)c3)c2)c1 (repeat unit) | 15.00 °C
58 | */C=C(\C#N)C(=O)OCCCCCCCCCCOC(=O)/C(C#N)=C/c1ccc2c(c1)c1cc(*)ccc1n2CCCCCCCCCCCCCC (repeat unit) | 35.00 °C
59 | *CCCCCCOC(=O)OCCCCCCCCCCCCOC(=O)OCCCCCCn1c(=O)c2cc3c(=O)n(*)c(=O)c3cc2c1=O (repeat unit) | -9.00 °C
60 | *O[Si](C)(C)c1cccc2c([Si](*)(C)C)cccc12 (repeat unit) | 62.00 °C
61 | *c1ccc(Oc2ccc(-c3ccc4nc(Oc5cc(-c6ccccc6)c6cc(*)ccc6n5)cc(-c5ccccc5)c4c3)cc2)cc1 (repeat unit) | 268.50 °C
62 | *Oc1ccc(OC(=O)c2cc(OCCCCCCCCOCC3CCCN3c3ccc([N+](=O)[O-])cc3)c(C(*)=O)cc2OCCCCCCCCOCC2CCCN2c2ccc([N+](=O)[O-])cc2)cc1 (repeat unit) | 41.00 °C
63 | *CC(*)C(=O)N1CC[NH+](CC)CC1 (repeat unit) | 72.50 °C
